Test results published in patent US9828360B2 (Array BioPharma Inc., priority 2012, dated 2017).

Columns and labels:
Test in all cases: KinaseProfiler off-target kinase profiling
Type in all cases: biochemical
Conditions in all cases: 10 μM, ATP near Km
[1] = biological target: T1, AMPK (A1/B1/G1) (Homo sapiens, UniProt Q13131)
T1 construct: purchased Millipore, Inc. (KinaseProfiler service)
Experimental: (§1) A representative compound of the invention (Example 48) was tested for off-target kinase activity at a concentration of 10 μM by Millipore, Inc. in their KinaseProfiler™ service against all the kinases available in their full kinase panel. The compound was run in duplicate at a concentration of ATP near the Km for each individual kinase according to Millipore's specifications. The results are shown in Table B. Data are reported as percent of control (POC) and are the average of the two replicates.

[2] = biological target: T2, Abl-P (Homo sapiens, UniProt P00519)
T2 construct: purchased Millipore, Inc. (KinaseProfiler service)
Experimental: as §1

[3] = biological target: T3, CAMK2g (Homo sapiens, UniProt Q13555)
T3 construct: purchased Millipore, Inc. (KinaseProfiler service)
Experimental: as §1

[4] = biological target: T4, CK1gamma1 (Homo sapiens, UniProt Q9HCP0)
T4 construct: purchased Millipore, Inc. (KinaseProfiler service)
Experimental: as §1

[5] = biological target: T5, CK2 (Homo sapiens, UniProt P68400)
T5 construct: purchased Millipore, Inc. (KinaseProfiler service)
Experimental: as §1

[6] = biological target: T6, DAPK3 (Homo sapiens, UniProt O43293)
T6 construct: purchased Millipore, Inc. (KinaseProfiler service)
Experimental: as §1

[7] = biological target: T7, EphB2 (Homo sapiens, UniProt P29323)
T7 construct: purchased Millipore, Inc. (KinaseProfiler service)
Experimental: as §1

[8] = biological target: T8, EphB3 (Homo sapiens, UniProt P54753)
T8 construct: purchased Millipore, Inc. (KinaseProfiler service)
Experimental: as §1

[9] = biological target: T9, EphB4 (Homo sapiens, UniProt P54760)
T9 construct: purchased Millipore, Inc. (KinaseProfiler service)
Experimental: as §1

[10] = biological target: T10, GRK7 (Homo sapiens, UniProt Q8WTQ7)
T10 construct: purchased Millipore, Inc. (KinaseProfiler service)
Experimental: as §1

[11] = biological target: T11, GSK3beta (Homo sapiens, UniProt P49841)
T11 construct: purchased Millipore, Inc. (KinaseProfiler service)
Experimental: as §1

[12] = biological target: T12, HIPK2 (Homo sapiens, UniProt Q9H2X6)
T12 construct: purchased Millipore, Inc. (KinaseProfiler service)
Experimental: as §1

[13] = biological target: T13, IGF-1R (Homo sapiens, UniProt P08069)
T13 construct: purchased Millipore, Inc. (KinaseProfiler service)
Experimental: as §1

[14] = biological target: T14, IGF-1R Activated (Homo sapiens, UniProt P08069)
T14 construct: purchased Millipore, Inc. (KinaseProfiler service)
Experimental: as §1

[15] = biological target: T15, IKKalpha (Homo sapiens, UniProt O15111)
T15 construct: purchased Millipore, Inc. (KinaseProfiler service)
Experimental: as §1

[16] = biological target: T16, IKKbeta (Homo sapiens, UniProt O14920)
T16 construct: purchased Millipore, Inc. (KinaseProfiler service)
Experimental: as §1

[17] = biological target: T17, IRAK1 (Homo sapiens, UniProt P51617)
T17 construct: purchased Millipore, Inc. (KinaseProfiler service)
Experimental: as §1

[18] = biological target: T18, IRR (Homo sapiens, UniProt P14616)
T18 construct: purchased Millipore, Inc. (KinaseProfiler service)
Experimental: as §1

[19] = biological target: T19, JAK3 (Homo sapiens, UniProt P52333)
T19 construct: purchased Millipore, Inc. (KinaseProfiler service)
Experimental: as §1

[20] = biological target: T20, KIT (Homo sapiens, UniProt P10721)
T20 construct: purchased Millipore, Inc. (KinaseProfiler service)
Experimental: as §1

[21] = biological target: T21, LIMK1 (Homo sapiens, UniProt P53667)
T21 construct: purchased Millipore, Inc. (KinaseProfiler service)
Experimental: as §1

[22] = biological target: T22, LKB1 (Homo sapiens, UniProt Q15831)
T22 construct: purchased Millipore, Inc. (KinaseProfiler service)
Experimental: as §1

[23] = biological target: T23, MRCKbeta (Homo sapiens, UniProt Q9Y5S2)
T23 construct: purchased Millipore, Inc. (KinaseProfiler service)
Experimental: as §1

[24] = biological target: T24, MST2 (Homo sapiens, UniProt Q13188)
T24 construct: purchased Millipore, Inc. (KinaseProfiler service)
Experimental: as §1

[25] = biological target: T25, MYLK (Homo sapiens, UniProt Q15746)
T25 construct: purchased Millipore, Inc. (KinaseProfiler service)
Experimental: as §1

[26] = biological target: T26, PASK (Homo sapiens, UniProt Q96RG2)
T26 construct: purchased Millipore, Inc. (KinaseProfiler service)
Experimental: as §1

[27] = biological target: T27, PDGFRbeta (Homo sapiens, UniProt P09619)
T27 construct: purchased Millipore, Inc. (KinaseProfiler service)
Experimental: as §1

[28] = biological target: T28, PKCdelta (Homo sapiens, UniProt Q05655)
T28 construct: purchased Millipore, Inc. (KinaseProfiler service)
Experimental: as §1

[29] = biological target: T29, PKCepsilon (Homo sapiens, UniProt Q02156)
T29 construct: purchased Millipore, Inc. (KinaseProfiler service)
Experimental: as §1

[30] = biological target: T30, PKCtheta (Homo sapiens, UniProt Q04759)
T30 construct: purchased Millipore, Inc. (KinaseProfiler service)
Experimental: as §1

[31] = biological target: T31, PKD1 (Homo sapiens, UniProt Q15139)
T31 construct: purchased Millipore, Inc. (KinaseProfiler service)
Experimental: as §1

[32] = biological target: T32, PRKG1alpha (Homo sapiens, UniProt Q13976)
T32 construct: purchased Millipore, Inc. (KinaseProfiler service)
Experimental: as §1

[33] = biological target: T33, PRKG1beta (Homo sapiens, UniProt Q13976)
T33 construct: purchased Millipore, Inc. (KinaseProfiler service)
Experimental: as §1

[34] = biological target: T34, Ret (Homo sapiens, UniProt P07949)
T34 construct: purchased Millipore, Inc. (KinaseProfiler service)
Experimental: as §1

[35] = biological target: T35, Rsk4 (Homo sapiens, UniProt Q9UK32)
T35 construct: purchased Millipore, Inc. (KinaseProfiler service)
Experimental: as §1

[36] = biological target: T36, SRPK1 (Homo sapiens, UniProt Q96SB4)
T36 construct: purchased Millipore, Inc. (KinaseProfiler service)
Experimental: as §1

[37] = biological target: T37, TAO3 (Homo sapiens, UniProt Q9H2K8)
T37 construct: purchased Millipore, Inc. (KinaseProfiler service)
Experimental: as §1

[38] = biological target: T38, TLK2 (Homo sapiens, UniProt Q86UE8)
T38 construct: purchased Millipore, Inc. (KinaseProfiler service)
Experimental: as §1

[39] = biological target: T39, TSSK2 (Homo sapiens, UniProt Q96PF2)
T39 construct: purchased Millipore, Inc. (KinaseProfiler service)
Experimental: as §1

[40] = biological target: T40, TrkB (Homo sapiens, UniProt Q16620)
T40 construct: purchased Millipore, Inc. (KinaseProfiler service)
Experimental: as §1

[41] = biological target: T41, Txk (Homo sapiens, UniProt P42681)
T41 construct: purchased Millipore, Inc. (KinaseProfiler service)
Experimental: as §1

T8 sequence (P54753 34-998): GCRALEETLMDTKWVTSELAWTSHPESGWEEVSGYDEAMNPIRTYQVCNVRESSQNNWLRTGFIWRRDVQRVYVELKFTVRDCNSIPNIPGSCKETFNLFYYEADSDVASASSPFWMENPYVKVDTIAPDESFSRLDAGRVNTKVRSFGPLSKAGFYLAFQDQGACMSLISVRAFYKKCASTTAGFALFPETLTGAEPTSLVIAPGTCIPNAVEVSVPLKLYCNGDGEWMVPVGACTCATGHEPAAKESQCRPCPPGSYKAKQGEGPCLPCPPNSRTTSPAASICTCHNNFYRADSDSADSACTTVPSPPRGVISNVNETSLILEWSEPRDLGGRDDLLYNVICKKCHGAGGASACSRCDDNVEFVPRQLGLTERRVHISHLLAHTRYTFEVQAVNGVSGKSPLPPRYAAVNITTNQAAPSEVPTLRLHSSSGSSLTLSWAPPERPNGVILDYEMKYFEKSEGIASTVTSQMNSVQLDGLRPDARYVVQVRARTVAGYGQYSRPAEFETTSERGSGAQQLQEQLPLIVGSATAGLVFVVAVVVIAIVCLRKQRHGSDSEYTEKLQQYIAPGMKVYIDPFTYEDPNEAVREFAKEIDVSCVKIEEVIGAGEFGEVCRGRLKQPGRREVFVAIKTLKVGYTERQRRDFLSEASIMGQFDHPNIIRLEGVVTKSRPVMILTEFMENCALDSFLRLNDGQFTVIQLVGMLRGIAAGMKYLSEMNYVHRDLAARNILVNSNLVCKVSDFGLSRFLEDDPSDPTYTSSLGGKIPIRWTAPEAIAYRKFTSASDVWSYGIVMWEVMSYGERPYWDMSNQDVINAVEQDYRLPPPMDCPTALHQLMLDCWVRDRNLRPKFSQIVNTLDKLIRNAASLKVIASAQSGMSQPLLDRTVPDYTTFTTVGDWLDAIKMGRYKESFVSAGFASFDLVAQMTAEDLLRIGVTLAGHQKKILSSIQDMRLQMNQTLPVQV
T10 sequence (Q8WTQ7 whole entry): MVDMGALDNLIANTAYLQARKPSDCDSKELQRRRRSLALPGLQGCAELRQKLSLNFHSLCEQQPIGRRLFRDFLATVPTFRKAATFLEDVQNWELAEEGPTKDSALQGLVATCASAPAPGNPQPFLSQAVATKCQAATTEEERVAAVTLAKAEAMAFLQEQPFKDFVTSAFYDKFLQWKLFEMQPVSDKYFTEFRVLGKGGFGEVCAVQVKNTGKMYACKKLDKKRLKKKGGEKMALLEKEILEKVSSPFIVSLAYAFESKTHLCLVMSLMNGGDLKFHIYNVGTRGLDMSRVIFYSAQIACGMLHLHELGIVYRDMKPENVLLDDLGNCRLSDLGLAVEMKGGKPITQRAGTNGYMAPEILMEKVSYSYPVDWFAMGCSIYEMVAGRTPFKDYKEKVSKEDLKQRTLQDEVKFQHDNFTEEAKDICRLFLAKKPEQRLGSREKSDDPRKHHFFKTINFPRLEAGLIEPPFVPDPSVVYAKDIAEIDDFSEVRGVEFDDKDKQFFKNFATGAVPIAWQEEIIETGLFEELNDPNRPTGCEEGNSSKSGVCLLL
T27 sequence (P09619 33-1106): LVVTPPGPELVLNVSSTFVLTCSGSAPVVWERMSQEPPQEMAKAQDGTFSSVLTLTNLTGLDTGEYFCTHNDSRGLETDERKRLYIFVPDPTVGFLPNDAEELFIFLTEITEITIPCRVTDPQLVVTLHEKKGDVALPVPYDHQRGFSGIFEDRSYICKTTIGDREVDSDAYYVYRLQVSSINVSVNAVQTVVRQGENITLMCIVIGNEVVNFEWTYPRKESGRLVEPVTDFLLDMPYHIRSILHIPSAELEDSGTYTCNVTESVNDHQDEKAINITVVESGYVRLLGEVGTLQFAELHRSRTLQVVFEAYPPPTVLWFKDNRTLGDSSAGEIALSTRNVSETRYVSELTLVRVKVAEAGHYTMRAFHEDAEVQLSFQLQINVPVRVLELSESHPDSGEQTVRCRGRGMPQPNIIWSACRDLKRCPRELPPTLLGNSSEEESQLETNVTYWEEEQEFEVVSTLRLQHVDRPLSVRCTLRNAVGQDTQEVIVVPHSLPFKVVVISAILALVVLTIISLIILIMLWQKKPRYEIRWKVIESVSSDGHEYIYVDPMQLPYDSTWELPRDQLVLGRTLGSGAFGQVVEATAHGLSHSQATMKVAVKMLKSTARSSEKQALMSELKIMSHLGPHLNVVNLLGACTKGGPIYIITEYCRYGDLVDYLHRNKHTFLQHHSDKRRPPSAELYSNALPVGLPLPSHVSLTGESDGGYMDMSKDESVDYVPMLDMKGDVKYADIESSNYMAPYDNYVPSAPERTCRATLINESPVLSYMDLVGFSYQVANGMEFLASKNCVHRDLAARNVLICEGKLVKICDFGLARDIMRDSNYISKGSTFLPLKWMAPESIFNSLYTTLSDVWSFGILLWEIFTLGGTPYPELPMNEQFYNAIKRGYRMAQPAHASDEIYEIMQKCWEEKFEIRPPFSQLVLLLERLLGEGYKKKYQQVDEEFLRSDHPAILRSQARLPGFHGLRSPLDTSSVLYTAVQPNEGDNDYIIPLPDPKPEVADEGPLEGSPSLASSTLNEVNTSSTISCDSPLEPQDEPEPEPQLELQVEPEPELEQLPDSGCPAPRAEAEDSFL
T18 sequence (P14616 27-1297): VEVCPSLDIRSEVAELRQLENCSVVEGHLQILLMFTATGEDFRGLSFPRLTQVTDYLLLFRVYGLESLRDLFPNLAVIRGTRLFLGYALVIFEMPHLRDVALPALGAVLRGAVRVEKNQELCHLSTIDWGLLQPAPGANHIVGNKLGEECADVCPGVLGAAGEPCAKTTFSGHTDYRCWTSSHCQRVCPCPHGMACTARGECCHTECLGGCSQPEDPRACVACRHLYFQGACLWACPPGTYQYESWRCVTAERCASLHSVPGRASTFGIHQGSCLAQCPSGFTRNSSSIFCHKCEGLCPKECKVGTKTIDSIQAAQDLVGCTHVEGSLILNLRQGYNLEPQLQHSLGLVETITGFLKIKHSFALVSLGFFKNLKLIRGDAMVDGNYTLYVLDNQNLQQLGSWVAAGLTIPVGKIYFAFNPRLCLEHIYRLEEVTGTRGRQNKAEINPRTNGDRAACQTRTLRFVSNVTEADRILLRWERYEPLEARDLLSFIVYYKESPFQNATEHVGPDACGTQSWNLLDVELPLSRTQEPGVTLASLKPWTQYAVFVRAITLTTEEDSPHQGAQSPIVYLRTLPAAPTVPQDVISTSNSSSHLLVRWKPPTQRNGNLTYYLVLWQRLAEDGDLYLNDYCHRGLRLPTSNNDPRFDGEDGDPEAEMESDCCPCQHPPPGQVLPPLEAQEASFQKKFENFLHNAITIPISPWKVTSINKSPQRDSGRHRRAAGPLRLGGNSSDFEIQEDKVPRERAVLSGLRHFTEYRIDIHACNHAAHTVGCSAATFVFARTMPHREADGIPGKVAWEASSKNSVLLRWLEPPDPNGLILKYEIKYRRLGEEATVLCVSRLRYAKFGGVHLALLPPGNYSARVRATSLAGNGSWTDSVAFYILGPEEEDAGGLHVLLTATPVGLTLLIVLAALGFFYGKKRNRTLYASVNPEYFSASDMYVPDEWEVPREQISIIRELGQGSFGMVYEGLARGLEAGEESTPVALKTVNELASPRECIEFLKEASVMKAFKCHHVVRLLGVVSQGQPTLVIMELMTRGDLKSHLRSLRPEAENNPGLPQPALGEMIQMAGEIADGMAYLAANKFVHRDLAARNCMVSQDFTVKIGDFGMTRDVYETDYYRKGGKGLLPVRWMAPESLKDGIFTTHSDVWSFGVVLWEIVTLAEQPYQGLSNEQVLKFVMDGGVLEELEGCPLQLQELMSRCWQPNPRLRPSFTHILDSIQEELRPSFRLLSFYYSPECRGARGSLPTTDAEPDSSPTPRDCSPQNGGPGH
T7 sequence (P29323 19-1055): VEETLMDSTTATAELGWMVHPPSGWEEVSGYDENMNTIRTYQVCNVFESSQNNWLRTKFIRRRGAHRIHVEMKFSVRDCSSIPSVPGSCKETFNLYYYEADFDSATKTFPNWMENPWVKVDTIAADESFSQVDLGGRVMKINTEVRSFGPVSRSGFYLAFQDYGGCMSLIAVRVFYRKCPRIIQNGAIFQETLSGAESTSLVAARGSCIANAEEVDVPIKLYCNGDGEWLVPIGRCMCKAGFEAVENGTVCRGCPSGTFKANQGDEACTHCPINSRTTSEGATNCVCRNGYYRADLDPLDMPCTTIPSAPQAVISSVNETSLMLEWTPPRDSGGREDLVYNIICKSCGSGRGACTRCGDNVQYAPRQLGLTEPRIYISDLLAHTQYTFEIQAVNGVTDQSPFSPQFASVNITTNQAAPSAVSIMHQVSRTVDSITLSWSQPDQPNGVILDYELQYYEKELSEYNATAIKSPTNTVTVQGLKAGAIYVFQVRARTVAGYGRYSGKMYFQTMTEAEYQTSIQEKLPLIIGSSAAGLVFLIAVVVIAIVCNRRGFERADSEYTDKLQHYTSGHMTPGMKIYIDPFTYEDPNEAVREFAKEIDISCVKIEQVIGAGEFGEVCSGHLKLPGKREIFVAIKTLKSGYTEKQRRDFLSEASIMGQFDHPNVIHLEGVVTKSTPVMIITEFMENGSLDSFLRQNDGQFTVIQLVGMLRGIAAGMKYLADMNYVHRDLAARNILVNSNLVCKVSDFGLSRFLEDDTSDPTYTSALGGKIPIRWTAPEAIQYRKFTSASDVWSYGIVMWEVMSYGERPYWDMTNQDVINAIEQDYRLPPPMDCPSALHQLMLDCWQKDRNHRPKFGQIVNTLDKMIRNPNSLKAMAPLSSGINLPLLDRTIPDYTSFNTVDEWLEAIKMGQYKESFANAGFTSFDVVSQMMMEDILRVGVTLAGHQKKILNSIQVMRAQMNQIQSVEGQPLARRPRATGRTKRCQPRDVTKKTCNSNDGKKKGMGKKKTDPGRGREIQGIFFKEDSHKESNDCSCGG

COCCN1C[C@@H](NC(=O)Nc2sc(C(C)C)nc2-c2ccccc2)[C@H](c2ccccc2)C1 [Example 48, 1-(2-isopropyl-4-phenylthiazol-5-yl)-3-((3S,4R)-1-(2-methoxyethyl)-4-phenylpyrrolidin-3-yl)urea]
Avg POC [1]: 114.5% of control
Avg POC [2]: 147.5% of control
Avg POC [3]: 116% of control
Avg POC [4]: 116% of control
Avg POC [5]: 106% of control
Avg POC [6]: 91% of control
Avg POC [7]: 99.5% of control
Avg POC [8]: 119% of control
Avg POC [9]: 99% of control
Avg POC [10]: 122% of control
Avg POC [11]: 63% of control
Avg POC [12]: 103% of control
Avg POC [13]: 85.5% of control
Avg POC [14]: 102% of control
Avg POC [15]: 112% of control
Avg POC [16]: 96% of control
Avg POC [17]: 100.5% of control
Avg POC [18]: 110.5% of control
Avg POC [19]: 102.5% of control
Avg POC [20]: 100% of control
Avg POC [21]: 104% of control
Avg POC [22]: 114.5% of control
Avg POC [23]: 140.5% of control
Avg POC [24]: 109.5% of control
Avg POC [25]: 107% of control
Avg POC [26]: 103% of control
Avg POC [27]: 103.5% of control
Avg POC [28]: 119.5% of control
Avg POC [29]: 103.5% of control
Avg POC [30]: 108.5% of control
Avg POC [31]: 94.5% of control
Avg POC [32]: 106% of control
Avg POC [33]: 105% of control
Avg POC [34]: 125.5% of control
Avg POC [35]: 116% of control
Avg POC [36]: 115.5% of control
Avg POC [37]: 105.5% of control
Avg POC [38]: 98% of control
Avg POC [39]: 124% of control
Avg POC [40]: 9% of control
Avg POC [41]: 85.5% of control
